Experiment [1] concerns the target Transient receptor potential cation channel subfamily V member 4 (Homo sapiens, UniProt Q9HBA0). The experiment is described as follows: Antagonist activity at human TRPV4.
A short description of experiment [2]: Inhibition of TNP-ADP binding to SERCA (unknown origin) by UV dual-wavelength spectrophotometer. Further details: species or system Homo sapiens.

In ChEMBL document CHEMBL4725288, “Modulation of TRPV4 and BKCa for treatment of brain diseases” (Bioorg Med Chem, 2020) one finds IC50 data, which are given here for two molecules.

SMILES strings stand for the structures.

Chain of Transient receptor potential cation channel subfamily V member 4 (Q9HBA0 whole entry): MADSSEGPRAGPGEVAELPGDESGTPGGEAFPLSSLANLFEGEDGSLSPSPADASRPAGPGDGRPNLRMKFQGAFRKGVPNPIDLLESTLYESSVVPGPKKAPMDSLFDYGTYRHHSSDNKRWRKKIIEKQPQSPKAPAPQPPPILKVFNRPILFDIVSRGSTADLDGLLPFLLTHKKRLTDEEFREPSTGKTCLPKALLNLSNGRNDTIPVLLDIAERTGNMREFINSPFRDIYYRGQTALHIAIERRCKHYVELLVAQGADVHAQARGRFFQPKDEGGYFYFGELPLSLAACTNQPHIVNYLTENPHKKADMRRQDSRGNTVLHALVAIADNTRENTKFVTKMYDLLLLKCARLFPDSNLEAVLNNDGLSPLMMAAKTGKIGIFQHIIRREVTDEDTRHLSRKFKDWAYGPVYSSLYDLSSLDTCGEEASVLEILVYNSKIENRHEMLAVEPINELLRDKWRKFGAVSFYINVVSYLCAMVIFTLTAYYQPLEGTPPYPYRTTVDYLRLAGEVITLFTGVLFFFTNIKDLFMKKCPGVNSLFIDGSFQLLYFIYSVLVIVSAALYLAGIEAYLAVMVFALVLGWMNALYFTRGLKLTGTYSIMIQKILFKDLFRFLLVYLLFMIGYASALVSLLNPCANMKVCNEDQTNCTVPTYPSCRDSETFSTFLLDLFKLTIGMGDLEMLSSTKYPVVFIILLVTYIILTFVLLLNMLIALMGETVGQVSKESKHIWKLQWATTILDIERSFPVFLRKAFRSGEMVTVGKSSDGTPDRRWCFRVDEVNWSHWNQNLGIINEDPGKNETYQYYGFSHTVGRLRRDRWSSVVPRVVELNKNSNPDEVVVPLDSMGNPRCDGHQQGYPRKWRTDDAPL

The IC50 is the concentration that inhibits the measured activity by half. Read a low IC50 as greater potency in that assay. With `Cc1c(C(=O)Nc2cccc(C(F)(F)F)c2)cc(-c2ccccc2)n1CCCN1CCOCC1`, the IC50 in experiment [1] came to 18 nM.
In experiment [2], `CC(C)(O)[C@H]1O[C@H]2CC[C@@]3(C)[C@@](O)(CC[C@H]4Cc5c([nH]c6ccccc56)[C@@]43C)C2=CC1=O` [PAXILLINE] had an IC50 of 5000 nM.
